Test results reported in US10954246B2, “Compound of EOC315 Mod.I crystal form and preparation method thereof” (Taizhou EOC Pharma Co., Ltd., priority 2017, dated 2021).
Structures can show the parent of a compound that is named as a salt.

Columns and labels:
[1] = test system: Colo-205 human CRC xenograft; experiment: Colo-205 human CRC xenograft model, tumor microvessel histomorphometry (CD31); assay type: in vivo; conditions: for decrease of MVA: 3 days after the administration
Experimental: The EOC315 crystalline form Mod. […] Therefore, a study was conducted in a Colo-205 human CRC xenograft model to evaluate whether the anti-tumor activity observed in vivo is consistent with the hypothesis. The microvessel density of a tumor was determined by the quantitative histomorphometry after the endothelial cell marker CD31 was stained. Four hours after the first drug delivery, the declining level of the tumor MVA was further increased compared with each solvent control group (32%; P<0.05). Twenty-four hours after the administration, the declining level of the tumor MVA was further increased (53%; P<0.01).

[2] = Stability evaluation under accelerated condition (40° C., RH 75%); assay type: physicochemical
Experimental: Long-term stability over twelve months was evaluated at 25° C. and a relative humidity of 60%; or accelerated stability over six months was evaluated at 40° C. and a relative humidity of 75%.

[3] = Month 0, limit 0.10%, listed as 151211
[4] = Month 0, limit 0.10%, listed as 151212
[5] = Month 0, limit 0.10%, listed as 151213
[6] = Month 1, limit 0.10%, listed as 151211
[7] = Month 1, limit 0.10%, listed as 151212
[8] = Month 1, limit 0.10%, listed as 151213
[9] = Month 1, limit 0.17%, listed as 151211
[10] = Month 1, limit 0.17%, listed as 151212
[11] = Month 1, limit 0.17%, listed as 151213
[12] = Month 2, limit 0.10%, listed as 151211
[13] = Month 2, limit 0.10%, listed as 151212
[14] = Month 2, limit 0.10%, listed as 151213
[15] = Month 2, limit 0.17%, listed as 151211
[16] = Month 2, limit 0.17%, listed as 151212
[17] = Month 2, limit 0.17%, listed as 151213
[18] = Month 3, limit 0.10%, listed as 151211
[19] = Month 3, limit 0.10%, listed as 151212
[20] = Month 3, limit 0.10%, listed as 151213
[21] = Month 6, limit 0.10%, listed as 151211
[22] = Month 6, limit 0.10%, listed as 151212
[23] = Month 6, limit 0.10%, listed as 151213
[24] = Month 6, limit 0.17%, listed as 151211
[25] = Month 6, limit 0.17%, listed as 151212
[26] = Month 6, limit 0.17%, listed as 151213

CNC(=O)c1cc(OCc2nnc(Nc3ccc(Cl)cc3)c3ccoc23)ccn1 [EOC315 crystalline form Mod. I, 4-(4-chloroanilino)-7-(2-methylaminocarbonyl-4-oxymethyl)pyridylfuro[2,3-d]pyridazine mesylate]
decrease of MVA ([1]; at 4 hours): 64%
decrease of MVA ([1]; at 6 hours): 68%
growth of tumor cells ([1]; conclusion from the xenograft results): significantly suppressed
decline of tumor MVA vs solvent control ([1]; four hours after the first drug delivery, P<0.05): 32%
decline of tumor MVA vs solvent control ([1]; twenty-four hours after the administration, P<0.01): 53%
Related substance Impurity 5 [2, 3]: 0.02%
Related substance Impurity 6 [2, 3]: 0.01%
Related substance Impurity 5 [2, 4]: 0.01%
Related substance Impurity 6 [2, 4]: Undetected
Related substance Impurity 5 [2, 5]: Undetected
Related substance Impurity 6 [2, 5]: Undetected
Related substance Maximum single impurity ([2]; Month 0, limit 0.15%, listed as 151211): 0.0079%
Related substance Maximum single impurity ([2]; Month 0, limit 0.15%, listed as 151212): 0.012%
Related substance Maximum single impurity ([2]; Month 0, limit 0.15%, listed as 151213): 0.0085%
Related substance Impurity 1 ([2]; Month 0, limit 0.17%): Undetected
Related substance Impurity 2 ([2]; Month 0, limit 0.17%): Undetected
Related substance Impurity 3 ([2]; Month 0, limit 0.17%, listed as 151211): 0.016%
Related substance Impurity 3 ([2]; Month 0, limit 0.17%, listed as 151212): 0.011%
Related substance Impurity 3 ([2]; Month 0, limit 0.17%, listed as 151213): 0.011%
Related substance Total impurity ([2]; Month 0, limit 1.0%, listed as 151211): 0.53%
Related substance Total impurity ([2]; Month 0, limit 1.0%, listed as 151212): 0.66%
Related substance Total impurity ([2]; Month 0, limit 1.0%, listed as 151213): 0.52%
Related substance Impurity 4 ([2]; Month 0, limit 3.0%, listed as 151211): 0.36%
Related substance Impurity 4 ([2]; Month 0, limit 3.0%, listed as 151212): 0.46%
Related substance Impurity 4 ([2]; Month 0, limit 3.0%, listed as 151213): 0.35%
Crystalline form ([2]; Month 0, limit ModI): ModI
Related substance Impurity 5 [2, 6]: Undetected
Related substance Impurity 6 [2, 6]: 0.01%
Related substance Impurity 5 [2, 7]: 0.01%
Related substance Impurity 6 [2, 7]: Undetected
Related substance Impurity 5 [2, 8]: 0.01%
Related substance Impurity 6 [2, 8]: Undetected
Related substance Maximum single impurity ([2]; Month 1, limit 0.15%, listed as 151211): 0.011%
Related substance Maximum single impurity ([2]; Month 1, limit 0.15%, listed as 151212): Undetected
Related substance Maximum single impurity ([2]; Month 1, limit 0.15%, listed as 151213): 0.0077%
Related substance Impurity 1 ([2]; Month 1, limit 0.17%): Undetected
Related substance Impurity 2 [2, 9]: 0.0031%
Related substance Impurity 3 [2, 9]: 0.0040%
Related substance Impurity 2 [2, 10]: 0.0026%
Related substance Impurity 3 [2, 10]: 0.0037%
Related substance Impurity 2 [2, 11]: Undetected
Related substance Impurity 3 [2, 11]: 0.0035%
Related substance Total impurity ([2]; Month 1, limit 1.0%, listed as 151211): 0.5%
Related substance Total impurity ([2]; Month 1, limit 1.0%, listed as 151212): 0.6%
Related substance Total impurity ([2]; Month 1, limit 1.0%, listed as 151213): 0.5%
Related substance Impurity 4 ([2]; Month 1, limit 3.0%, listed as 151211): 0.4%
Related substance Impurity 4 ([2]; Month 1, limit 3.0%, listed as 151212): 0.5%
Related substance Impurity 4 ([2]; Month 1, limit 3.0%, listed as 151213): 0.3%
Related substance Impurity 5 [2, 12]: Undetected
Related substance Impurity 6 [2, 12]: 0.01%
Related substance Impurity 5 [2, 13]: 0.02%
Related substance Impurity 6 [2, 13]: Undetected
Related substance Impurity 5 [2, 14]: Undetected
Related substance Impurity 6 [2, 14]: Undetected
Related substance Maximum single impurity ([2]; Month 2, limit 0.15%, listed as 151211): 0.0045%
Related substance Maximum single impurity ([2]; Month 2, limit 0.15%, listed as 151212): 0.0062%
Related substance Maximum single impurity ([2]; Month 2, limit 0.15%, listed as 151213): 0.0067%
Related substance Impurity 1 ([2]; Month 2, limit 0.17%): Undetected
Related substance Impurity 2 [2, 15]: Undetected
Related substance Impurity 3 [2, 15]: 0.0013%
Related substance Impurity 2 [2, 16]: 0.0036%
Related substance Impurity 3 [2, 16]: 0.0070%
Related substance Impurity 2 [2, 17]: 0.0035%
Related substance Impurity 3 [2, 17]: 0.014%
Related substance Total impurity ([2]; Month 2, limit 1.0%, listed as 151211): 0.6%
Related substance Total impurity ([2]; Month 2, limit 1.0%, listed as 151212): 0.7%
Related substance Total impurity ([2]; Month 2, limit 1.0%, listed as 151213): 0.6%
Related substance Impurity 4 ([2]; Month 2, limit 3.0%, listed as 151211): 0.4%
Related substance Impurity 4 ([2]; Month 2, limit 3.0%, listed as 151212): 0.5%
Related substance Impurity 4 ([2]; Month 2, limit 3.0%, listed as 151213): 0.4%
Related substance Impurity 5 [2, 18]: 0.01%
Related substance Impurity 6 [2, 18]: 0.02%
Related substance Impurity 5 [2, 19]: 0.01%
Related substance Impurity 6 [2, 19]: Undetected
Related substance Impurity 5 [2, 20]: Undetected
Related substance Impurity 6 [2, 20]: 0.01% d
Related substance Maximum single impurity ([2]; Month 3, limit 0.15%): Undetected
Related substance Impurity 1 ([2]; Month 3, limit 0.17%): Undetected
Related substance Impurity 2 ([2]; Month 3, limit 0.17%): Undetected
Related substance Impurity 3 ([2]; Month 3, limit 0.17%): Undetected
Related substance Total impurity ([2]; Month 3, limit 1.0%, listed as 151211): 0.5%
Related substance Total impurity ([2]; Month 3, limit 1.0%, listed as 151212): 0.6%
Related substance Total impurity ([2]; Month 3, limit 1.0%, listed as 151213): 0.5%
Related substance Impurity 4 ([2]; Month 3, limit 3.0%, listed as 151211): 0.4%
Related substance Impurity 4 ([2]; Month 3, limit 3.0%, listed as 151212): 0.5%
Related substance Impurity 4 ([2]; Month 3, limit 3.0%, listed as 151213): 0.37%
Related substance Impurity 5 [2, 21]: 0.01%
Related substance Impurity 6 [2, 21]: 0.01%
Related substance Impurity 5 [2, 22]: 0.01%
Related substance Impurity 6 [2, 22]: Undetected
Related substance Impurity 5 [2, 23]: Undetected
Related substance Impurity 6 [2, 23]: Undetected
Related substance Maximum single impurity ([2]; Month 6, limit 0.15%, listed as 151211): 0.030%
Related substance Maximum single impurity ([2]; Month 6, limit 0.15%, listed as 151212): 0.032%
Related substance Maximum single impurity ([2]; Month 6, limit 0.15%, listed as 151213): 0.029%
Related substance Impurity 1 ([2]; Month 6, limit 0.17%): Undetected
Related substance Impurity 2 [2, 24]: 0.0061%
Related substance Impurity 3 [2, 24]: 0.045%
Related substance Impurity 2 [2, 25]: 0.0043%
Related substance Impurity 3 [2, 25]: 0.044%
Related substance Impurity 2 [2, 26]: 0.045%
Related substance Impurity 3 [2, 26]: 0.060%
Related substance Total impurity ([2]; Month 6, limit 1.0%, listed as 151211): 0.7%
Related substance Total impurity ([2]; Month 6, limit 1.0%, listed as 151212): 0.8%
Related substance Total impurity ([2]; Month 6, limit 1.0%, listed as 151213): 0.7%
Related substance Impurity 4 ([2]; Month 6, limit 3.0%, listed as 151211): 0.4%
Related substance Impurity 4 ([2]; Month 6, limit 3.0%, listed as 151212): 0.5%
Related substance Impurity 4 ([2]; Month 6, limit 3.0%, listed as 151213): 0.4%
Crystalline form ([2]; Month 6, limit ModI): ModI
